Data set [1] relates to visceral pain (writhing). The data set can be described thus: Acetic Acid or Acetylcholine Writhing Assay. Format: in vivo. The following applies: PO; for effect on pain (writhing study): FIGS. 3A and 3B. The method, then: Animals were fasted overnight prior to the start of the assay. Test and control article doses, ranging from 3-50 mg/kg, were administered (PO) followed by an IP injection of acetic acid (1.0%) or acetylcholine (10 mg/kg), and immediately placed in a viewing chamber. […] Writhing (abdominal constriction) was defined as a contraction of the abdominal musculature accompanied by arching of the back and extension of the limbs. Latency to first writhe and total number of writhes were recorded. Test articles included oral eluxadoline and two illustrative opioid peptides disclosed herein, Peptide A and Peptide D; and control articles included loperamide and morphine
(In general: Writhing tests count abdominal constrictions after an irritant is injected.)

A short description of data set [2]: SIF assay (stability in simulated intestinal fluid). Format: in vitro ADME. The following applies: for SIF (min): Table 4, SIF half-life; for half-life at 20 μM: simulated intestinal fluid (SIF) with pancreatin, simulated intestinal fluid, pH 6.8, pancreatin, 37° C. The method, then:
SIF was prepared by adding 6.8 g of monobasic potassium phosphate and 10.0 g of pancreatin to 1.0 L of water. After dissolution, the pH was adjusted to 6.8 using NaOH. DMSO stocks (2 mM) were prepared for each of the opioid agonist peptides. Aliquots of the DMSO solutions were dosed into […], each containing 0.5 mL of SIF, which was pre-warmed to 37° C. The final opioid agonist peptide concentration was 20 μM. The vials were kept in a benchtop Thermomixer® for the duration of the experiment. At each timepoint (0, 5, 10, 20, 40, 60, or 360 minutes or 24 hours), 1.0 mL of acetonitrile containing 1% formic acid was added to one vial to terminate the reaction. Samples were stored at 4° C. until the end of the experiment. After the final timepoint was sampled, the tubes were mixed and then centrifuged at 3,000 rpm for 10 minutes. Aliquots of the supernatant were removed, diluted 1:1 into distilled water containing an internal standard, and analyzed by LCMS/MS. The percent of the opioid agonist peptide remaining at each timepoint was calculated based on the peak area response ratio of opioid agonist peptide to the internal standard. Time 0 was set to 100%, and all later timepoints were calculated relative to time 0. Half-lives were calculated by fitting to a first-order exponential decay equation using Graph pad.

For data set [3], the system named is gastro intestinal motility. In words: Gastro Intestinal Motility Charcoal Transit Assay. Format: in vivo. The following applies: for % inhibition of GI motility: Table 4, orally dosed, charcoal transit. The method, then: Animals were treated with 0.2 mL croton oil 96 and 72 hours before the gastro intestinal transit (GIT) assay. Animals were fasted overnight prior to charcoal meal dosing. Test and control articles were administered (PO, IP) followed by an oral dose of aqueous suspension of 5% charcoal in 10% gum arabic. […] Charcoal meal test were given 30 min post-test article dose. Twenty minutes after administration of the charcoal test meal, animals were euthanized via CO2 inhalation followed by cervical dislocation, and the small and large intestines were examined to evaluate GI transit and motility. GI transit is expressed as a percentage of the distance traveled by the charcoal test meal divided by the length of the intestine.

Data set [4] is described as follows: SGF assay (stability in simulated gastric fluid). Format: in vitro ADME. To be noted: pig, simulated gastric fluid (SGF) with porcine pepsin, pH 2, pepsin, 37° C. The method, then: SGF was prepared by adding 20 mg NaCl, 32 mg porcine pepsin (MP Biochemicals, catalog 02102599), and 70 μl HCl to 10 ml water (final pH=2). Aliquots of SGF (0.5 ml each) were pre-warmed at 37° C. To start the reaction, 1 μl of opioid agonist peptide stock solution (10 mM in DMSO) was added to 0.5 ml SGF and thoroughly mixed such that the final peptide concentration was 20 μM. The reactions were incubated at 37° C. with gentle shaking.
At each timepoint (0, 15, 30, 60 min) 50 µl aliquots were removed and added to 200 ul of acetonitrile containing 0.1% formic acid to quench the reaction. Samples were stored at 4° C. until the end of the experiment and centrifuged at 10,000 rpm for 5 minutes. Aliquots of the supernatant were removed, diluted 1:1 into distilled water containing internal standard, and analyzed by LCMS/MS. The percent of the opioid agonist peptide remaining at each timepoint was calculated based on the peak area response ratio of the opioid agonist peptide to the internal standard. Time 0 was set to 100%, and all later timepoints were calculated relative to time 0. Half-lives were calculated by fitting to a first-order exponential decay equation using GraphPad.

Data set [5] deals with T1, δ-opioid receptor (DOR) (Homo sapiens, UniProt P41143).
T1 construct: host or cells: cAMP Hunter CHO-K1 OPRD1 Gαi cell line
T1 sequence (P41143 whole entry): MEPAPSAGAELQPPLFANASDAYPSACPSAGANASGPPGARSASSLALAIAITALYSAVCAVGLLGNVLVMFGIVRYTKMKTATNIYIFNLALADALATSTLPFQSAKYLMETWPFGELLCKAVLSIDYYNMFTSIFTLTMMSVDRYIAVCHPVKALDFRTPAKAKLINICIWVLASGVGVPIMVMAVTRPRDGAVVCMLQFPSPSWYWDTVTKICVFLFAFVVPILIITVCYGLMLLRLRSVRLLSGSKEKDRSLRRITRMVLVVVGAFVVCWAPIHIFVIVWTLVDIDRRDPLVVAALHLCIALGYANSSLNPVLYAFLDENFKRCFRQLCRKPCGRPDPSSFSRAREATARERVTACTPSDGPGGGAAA
The data set can be described thus: DOR agonist cAMP assay (HitHunter cAMP, forskolin-stimulated). Format: cell-based. Put shortly:
(§1)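 CHO-K1 Gαi cells expressing OPRM1 or OPRD1 were exposed 30 min at 37° C to 11-point threefold agonist dilutions, in duplicate, with 20 uM forskolin final. cAMP quantified by EFC chemiluminescent competitive immunoassay against cAMP standards. EC50 by four-parameter Hill nonlinear regression.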

Data set [6] addresses T2, μ-opioid receptor (MOR) (Homo sapiens, UniProt P35372).
T2 construct: host or cells: cAMP Hunter CHO-K1 OPRM1 Gαi cell line
The data set can be described thus: MOR agonist cAMP assay (HitHunter cAMP, forskolin-stimulated). Format: cell-based. Put shortly:
as §1
For orientation: Cyclic AMP is a second messenger, typically raised through Gs and lowered through Gi signalling.

Molecules are shown by their SMILES. Square brackets hold non-standard residues; d marks the D form. Peptide text beside a SMILES is read from it. Dmt = Cc1cc(O)cc(C)c1C[C@H](N)C(=O)O; β3hF = N[C@H](CC(=O)O)Cc1ccccc1; Sar = CNCC(=O)O

T2 sequence (P35372 whole entry): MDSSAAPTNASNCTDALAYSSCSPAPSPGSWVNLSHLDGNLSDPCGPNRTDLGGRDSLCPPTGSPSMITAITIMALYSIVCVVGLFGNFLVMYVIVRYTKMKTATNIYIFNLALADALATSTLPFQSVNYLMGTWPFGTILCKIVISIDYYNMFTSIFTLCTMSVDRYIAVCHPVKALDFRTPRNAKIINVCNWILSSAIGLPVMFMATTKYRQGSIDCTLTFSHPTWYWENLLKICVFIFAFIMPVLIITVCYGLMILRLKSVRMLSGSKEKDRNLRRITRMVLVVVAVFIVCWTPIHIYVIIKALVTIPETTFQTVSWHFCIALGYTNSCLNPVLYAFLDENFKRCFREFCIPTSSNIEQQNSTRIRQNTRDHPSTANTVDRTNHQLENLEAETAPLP

Take `Cc1cc(O)cc(C)c1C[C@H](N)C(=O)N[C@H](C)C(=O)NCC(=O)N[C@H](CC(=O)N(C)CC(N)=O)Cc1ccccc1` [Seq. ID 43, H-DMT-a-G-bhF-Sar-NH2]: the “effect on pain (writhing study)” value in data set [1] is on record as “positive effect”. Also, in data set [1] (at 30 mg/kg and 10 mg/kg, FIGS. 2A and 2B), the “visceral pain (writhing study)” value is “significantly reduced visceral pain”. Besides, the “SIF (min)” value in data set [2] is on record as “**** (for SIF half-life values, **** indicates >1290)”. Also, the “% inhibition of GI motility” value in data set [3] is “** (** indicates between 50% and 100%)”. Moreover, the “inhibition of small intestine motility as compared to eluxadoline” value in data set [3] (orally administered, all doses tested, FIG. 1A) was “slightly greater inhibition of small intestine motility”. For the same molecule, the “inhibition of GI transit as compared to eluxadoline” value in data set [3] (orally administered, all doses tested, FIGS. 1B and 1C) is “greater inhibition of GI transit”.

Consider `CCCC[C@@H](C(=O)O)N(C)C(=O)C[C@H](Cc1cccc(Cl)c1)NC(=O)CNC(=O)[C@@H](C)NC(=O)[C@@H](N)Cc1c(C)cc(C(N)=O)cc1C` [compound 167], for which the half-life at 20 μM in data set [4] and in data set [2] was over 24 h in each case. Moreover, the EC50 in data set [5] and in data set [6] was under 1 nM in each case.

Take `Cc1cc(O)cc(C)c1C[C@H](N)C(=O)NCC(=O)NCC(=O)N[C@H](CC(=O)N(C)CC(N)=O)Cc1ccccc1` [compound 81] (H-[Dmt]GG[β3hF][Sar]-NH2): the half-life at 20 μM in data set [4] and in data set [2] was over 24 h in each case. Further, the EC50 in data set [5] and in data set [6] was under 1 nM throughout.

In the case of `Cc1cc(C(N)=O)cc(C)c1C[C@H](N)C(=O)N[C@H](Cc1ccc(O)cc1)C(=O)NCC(=O)N[C@H](CC(=O)N(C)CC(N)=O)Cc1ccccc1` [compound 85], the half-life at 20 μM in data set [4] was 6 to 24 h; in data set [2], over 24 h. In addition, the EC50 in data set [5] and in data set [6] was under 1 nM in each case.

Consider `Cc1cc(C(N)=O)cc(C)c1C[C@H](N)C(=O)N[C@H](C)C(=O)NCC(=O)N[C@H](CC(=O)N(C)[C@H](C(=O)O)C(C)C)Cc1ccccc1` [compound 96], for which the half-life at 20 μM in data set [4] and in data set [2] was over 24 h each time. For the same molecule, the EC50 in data set [5] and in data set [6] was under 1 nM each time.

As for `Cc1cc(C(N)=O)cc(C)c1C[C@H](N)C(=O)N[C@H](C)C(=O)NCC(=O)N[C@H](CC(=O)N(C)[C@H](C(=O)O)c1ccccc1)Cc1ccccc1` [compound 99], the half-life at 20 μM in data set [4] and in data set [2] was over 24 h each time. For the same molecule, the half-maximal effective concentration (EC50) in data set [5] and in data set [6] was under 1 nM each time.

Take `Cc1cc(C(N)=O)cc(C)c1C[C@H](N)C(=O)N[C@H](C)C(=O)NCC(=O)N[C@H](CC(=O)N(C)[C@@H](CC(C)C)C(=O)O)Cc1ccccc1` [compound 92]: the half-life at 20 μM in data set [4] and in data set [2] was over 24 h each time. The EC50 is under 1 nM in data set [5] and 1 to 10 nM in data set [6].

As for `Cc1cc(C(N)=O)cc(C)c1C[C@H](N)C(=O)N[C@@H](C(=O)NCC(=O)N[C@H](CC(=O)N(C)CC(N)=O)Cc1ccccc1)[C@H](C)O` [compound 76], the half-life at 20 μM in data set [4] was 0.167 to 6 h; in data set [2], over 24 h. Moreover, the figures for the concentration for a half-maximal effect (EC50) in data set [5] and in data set [6] were under 1 nM and 1 to 10 nM, respectively.

On to `Cc1cc(O)cc(C)c1C[C@H](N)C(=O)N[C@H](C)C(=O)NCC(=O)N[C@H](CC(=O)N(C)[C@H](C(=O)O)C(C)C)Cc1ccccc1` [compound 161], for which the half-life at 20 μM in data set [4] and in data set [2] was over 24 h in each case. The concentration for a half-maximal effect (EC50) in data set [5] and in data set [6] was under 1 nM each time.

With `Cc1cc(O)cc(C)c1C[C@H](N)C(=O)N[C@H](C)C(=O)NCC(=O)N[C@H](CC(=O)N(C)[C@@H](C)C(=O)O)Cc1ccccc1` [compound 111], the half-life at 20 μM in data set [4] and in data set [2] was over 24 h throughout. The EC50 in data set [5] and in data set [6] was under 1 nM throughout.

Turning to `CCCC[C@@H](C(=O)O)N(C)C(=O)C[C@H](Cc1ccc(C)cc1)NC(=O)CNC(=O)[C@@H](C)NC(=O)[C@@H](N)Cc1c(C)cc(C(N)=O)cc1C` [compound 165], the values for the half-life at 20 μM in data set [4] and in data set [2] were over 24 h and 0.167 to 6 h, respectively. In addition, the EC50 in data set [5] and in data set [6] was under 1 nM each time.

Turning to `Cc1cc(C(N)=O)cc(C)c1C[C@H](N)C(=O)N[C@H](C)C(=O)NCC(=O)N[C@H](CC(=O)N(C)CC(N)=O)Cc1ccccc1` [compound 70], the half-life at 20 μM in data set [4] is 0.167 to 6 h; in data set [2] it was over 24 h. Moreover, the half-maximal effective concentration (EC50) in data set [5] and in data set [6] was under 1 nM throughout.

`Cc1cc(O)cc(C)c1C[C@H](N)C(=O)N[C@H](C)C(=O)N[C@@H](C)C(=O)N[C@H](CC(=O)N(C)CC(N)=O)Cc1ccccc1` [Seq. ID 66, DMT-(D)Ala-Ala-(b-homoPhe)-Sar-NH2] (H-[Dmt][dA]A[β3hF][Sar]-NH2): the “SIF (min)” value in data set [2] is listed as “**** (for SIF half-life values, **** indicates >1290)”. In data set [3], the “% inhibition of GI motility” value is “* (for % inhibition of GI motility, * indicates between 30% and 50%)”. Further, the “Ratio (MOR EC50/DOR EC50)” value in data set [6] (Table 4, MOR EC50 divided by DOR EC50) is “* (for ratio, * indicates between 0.1 and 0.3)”.

Turning to `COc1ccc(CN(C(=O)[C@@H](N)Cc2c(C)cc(C(N)=O)cc2C)[C@@H](C)c2ncc(-c3ccccc3)[nH]2)cc1C(=O)O` [eluxadoline, reference compound], the “effect on pain (writhing study)” value in data set [1] is “little effect on pain”.

With `Cc1cc(C(N)=O)cc(C)c1C[C@H](N)C(=O)N[C@H](C)C(=O)NCC(=O)N[C@H](CC(=O)N(C)[C@@H](Cc1ccc(O)cc1)C(=O)O)Cc1ccccc1` [compound 102], the half-life at 20 μM in data set [4] and in data set [2] was over 24 h throughout. In addition, the EC50 in data set [5] and in data set [6] was under 1 nM in each case.

For the molecule `Cc1cc(C(N)=O)cc(C)c1C[C@H](N)C(=O)N[C@H](C)C(=O)NCC(=O)N[C@H](CC(=O)N(C)[C@@H](C)C(=O)O)Cc1ccccc1` [compound 93], the half-life at 20 μM in data set [4] and in data set [2] was over 24 h each time. Moreover, the 50% effective concentration (EC50) in data set [5] and in data set [6] was under 1 nM throughout.

Take `CCCC[C@@H](C(=O)O)N(C)C(=O)C[C@H](Cc1ccccc1)NC(=O)CNC(=O)[C@@H](C)NC(=O)[C@@H](N)Cc1c(C)cc(C(N)=O)cc1C` [compound 101]: the half-life at 20 μM in data set [4] and in data set [2] was over 24 h each time. Further, the EC50 is under 1 nM in data set [5] and 1 to 10 nM in data set [6].

A word on the half-life: it is how long it takes for the measured level to halve. A higher half-life goes with slow loss. By EC50 is commonly meant the concentration that produces a half-maximal response.

These data come from US10278957B2, “Opioid agonist peptides and uses thereof” (Protagonist Therapeutics, Inc., priority 2017, dated 2019).
